Experimental data from patent US7893304B2, “Hydroquinone long-chain derivatives and/or phenoxy long-chain derivatives, and pharmaceuticals comprising the same” (Meiji Dairies Corporation, priority 2005, dated 2011).
Entries after “also recorded” stand apart in the source; their conditions may differ.

Tests used:
[1] = DPPH scavenging ability test (active organic radical species scavenging ability); set-up: key to DPPH test: +: effective; −: >10 mM; conditions: for IC50: percent decrease in OD at 550 nm, 400 μM DPPH in ethanol
Protocol: The ability of the derivatives obtained in preparation processes A and B to scavenge 2,2-diphenyl-1-picrylhydrazyl (DPPH) (active organic radical species scavenging ability) was measured by the following method.
Trolox® and the test compounds were individually dissolved in ethanol and the solutions were adjusted to a final concentration of 10 mM. Next, each solution was diluted severalfold to obtain solutions at concentrations ranging from 10 mM to 1 μM.
100 μl of each of the obtained ethanol solutions was added to a multi-well ELISA plate along with 100 μl of 400 μM DPPH solution in ethanol. The absorbance (optical density, OD) at 550 nm was measured for these solutions.
DPPH scavenging ability was determined for each test compound based on the results of these measurements. For comparison, the test compound solutions in ethanol were substituted with ethanol alone.
The scavenging ability of each test compound is presented as a percent decrease in OD with respect to the absorbance of the comparative sample.

[2] = OH radical scavenging ability test (ABTS scavenging assay, Fenton reaction); set-up: key to OH test: +: effective; −: >10 mM; conditions: for IC50: ABTS competition, OD at 405 nm, 45 minutes at room temperature
Protocol: Hydroxyl radical scavenging ability was measured for derivatives obtained in preparation processes A, B, and E by the following method using an ABTS (2,2′-azinobis(3-ethylbenzthiazolin-6-sulfonic acid)) scavenging assay.
In this test, hydroxyl radicals were generated in situ by the Fenton reaction. Next, competitive reactions between ABTS and the test compounds took place, and the hydroxyl radicals were scavenged by ABTS to form ABTS^+ radical cations, or were scavenged by the test compounds.
The test compounds and Trolox® were individually dissolved in ethanol and the solutions were adjusted to a final concentration of 10 mM. Each solution was then diluted severalfold to obtain solutions at concentrations ranging from 10 mM to 1 μM.
Next, 180 μl of 1:1 ethanol-water solution was added to a multi-well ELISA plate, and then 30 μl of 1 mM aqueous ABTS solution, 30 μl of 0.5 mM aqueous Fe2SO4 solution, 30 μl of a solution of each test compound in ethanol, and 30 μl of 100 mM aqueous hydrogen peroxide solution were added. The obtained solutions were left to stand for 45 minutes at room temperature, and the absorbance (OD) at 405 nm was measured. OH radical scavenging ability was determined for each test compound based on the results of these measurements. For comparison, the test compound solutions in ethanol were substituted with ethanol alone.

E15 neurons [3] = assay: Axonal growth in primary culture of CNS neurons (morphometric analysis); type: cell-based, mouse
Protocol: Fetal mouse (15 days old) cerebral hemispheres were dissected in cold Gey's balanced salt solution supplemented with glucose to isolate the neocortex. Cells were dispersed by trypsin and mechanical dissociation. Next, the cells were plated at a concentration of 200,000 cells/well onto cover slips coated with 1 μg/ml of poly-L-lysine, and the cells were cultured in a serum-containing medium (Dulbecco's modified Eagle medium, 2 mM glutamine, 1 g/l glucose, 10% fetal calf serum, and penicillin/streptomycin) in 5% CO2 at 37° C. for 24 hours.
On day 2, the medium was substituted with a chemically defined medium (Dulbecco's modified Eagle medium, 2 mM glutamine, 1 g/l glucose, 16 μg/ml putrescine, 52 ng/ml selenium, 10 μg/ml holotransferrin, 5 μg/ml insulin, and 3 ng/ml progesterone), and test compounds were added at different concentrations. The cells were cultured in 5% CO2 at 37° C. for 24 hours.
On day 3, the cells were fixed with 4% formaldehyde in phosphate buffered saline (PBS) for ten minutes. After two washes with PBS, permeation of cells was performed with 100% methanol for five minutes. […]
Photographs were randomly taken (×20 magnification) using an Axiovert 200 microscope (Zeiss) equipped with a digital camera. The axonal length of each neuron was determined using a computer-assisted image analyzer (UTHSCSA Image Tool 3.0).

E15 neurons [4] = conditions: J. Neurochem., 90 (6), 1423-31, 2004; cited from earlier work
[5] = read-out: IC50, OH radical scavenging ability
[6] = read-out: IC50 (μM), OH radical scavenging ability

Row | IC50 [1] [mM] | SMILES | DPPH test ([1]; Table 3, formula (1) compounds) | DPPH test ([1]; Table 4, formula (2) compounds) | OH test ([2]; Table 4, formula (2) compounds) | further results
1 | > 10 | COc1ccc(OC)c(CCCCCCCCCCCCO)c1 [Synthesis Example A-(5), 12-(2,5-dimethoxyphenyl)dodecan-1-ol] | − (−: >10 mM) |  |  | IC50 [2, 5]: > 10000 µM; OH test ([2]; Table 3, formula (1) compounds): − (−: >10 mM)
2 |  | COc1ccc(OC)c(CCCCCCCCCCCCCCO)c1 [Synthesis Example A-(6), 14-(2,5-dimethoxyphenyl)tetradecan-1-ol] | − (−: >10 mM) |  |  | OH test ([2]; Table 3, formula (1) compounds): − (−: >10 mM)
3 |  | COc1ccc(OC)c(CCCCCCCCCCCCCCCO)c1 [Synthesis Example A-(7), 15-(2,5-dimethoxyphenyl)pentadecan-1-ol] | − (−: >10 mM) |  |  | axonal growth-promoting activity (in words) (E15 neurons [3]; 24 hours with compound, listed as QFA15): the most active compound; also recorded: greater axonal growth-promoting ability at a lower concentration; also recorded: effective axonal growth-promoting agent; axonal growth-promoting effect, value of FIG. 4 micrographs (E15 neurons [3]; control 85 μM, the values are: axonal length): 155 µm; OH test ([2]; Table 3, formula (1) compounds): − (−: >10 mM)
4 |  | COc1ccc(OC)c(CCCCCCCCCCCCCCCCO)c1 [Synthesis Example A-(8), 16-(2,5-dimethoxyphenyl)hexadecan-1-ol] | − (−: >10 mM) |  |  | OH test ([2]; Table 3, formula (1) compounds): − (−: >10 mM)
5 | > 10 | COc1ccc(OC)c(CCCCCCCCCCCCCCCCCCO)c1 [Synthesis Example A-(9), 18-(2,5-dimethoxyphenyl)octadecan-1-ol] | − (−: >10 mM) |  |  | IC50 [2, 5]: > 10000 µM; OH test ([2]; Table 3, formula (1) compounds): − (−: >10 mM)
6 |  | COc1cc(OC)c(OC)cc1CCCCCCCCCCCCCCO [Synthesis Example B-(13), 14-(2,4,5-trimethoxyphenyl)tetradecan-1-ol] | − (−: >10 mM) |  |  | 
7 | > 10 | COc1cc(OC)c(OC)cc1CCCCCCCCCCCCO [Synthesis Example B-(14), 12-(2,4,5-trimethoxyphenyl)dodecan-1-ol] | − (−: >10 mM) |  |  | IC50 [2, 6]: 720 µM
8 |  | COc1cc(OC)c(OC)cc1CCCCCCCCCCCCCCCO [Synthesis Example B-(15), 15-(2,4,5-trimethoxyphenyl)pentadecan-1-ol] | − (−: >10 mM) |  |  | 
9 |  | COc1cc(OC)c(OC)cc1CCCCCCCCCCCCCCCCO [Synthesis Example B-(16), 16-(2,4,5-trimethoxyphenyl)hexadecan-1-ol] | − (−: >10 mM) |  |  | 
10 | > 10 | COc1cc(OC)c(OC)cc1CCCCCCCCCCCCCCCCCCO [Synthesis Example B-(17), 18-(2,4,5-trimethoxyphenyl)octadecan-1-ol] | − (−: >10 mM) |  |  | IC50 [2, 6]: 720 µM
11 |  | COc1ccc(OC)c(NCCCCCCCCCCCCCCCCO)c1 [Synthesis Example C-(21), 16-(2,5-dimethoxyphenylamino)hexadecan-1-ol] |  | − (−: >10 mM) | − (−: >10 mM) | 
12 |  | COc1ccc(OC)c(NCCCCCCCCCCCCCCO)c1 [Synthesis Example C-(22), 14-(2,5-Dimethoxyphenylamino)tetradecan-1-ol] |  | − (−: >10 mM) | − (−: >10 mM) | 
13 |  | COc1ccc(OC)c(NCCCCCCCCCCCCO)c1 [Synthesis Example C-(23), 12-(2,5-Dimethoxyphenylamino)dodecan-1-ol] |  | − (−: >10 mM) | − (−: >10 mM) | 
14 |  | COc1ccc(OC)c(NCCCCCCCCCCO)c1 [Synthesis Example C-(24), 10-(2,5-Dimethoxyphenylamino)decan-1-ol] |  | − (−: >10 mM) | − (−: >10 mM) | 
15 |  | COc1ccc(OC)c(OCCCCCCCCCCCCO)c1 [Synthesis Example D-(29), 12-(2,5-dimethoxyphenoxy)dodecan-1-ol] |  | − (−: >10 mM) | − (−: >10 mM) | 
16 |  | COc1ccc(OC)c(OCCCCCCCCCCCCCCCCO)c1 [Synthesis Example D-(30), 16-(2,5-dimethoxyphenoxy)hexadecan-1-ol] |  | − (−: >10 mM) | − (−: >10 mM) | 
17 | 0.23 | OCCCCCCCCCCCCc1cc(O)ccc1O [Synthesis Example E-(31), 2-(12-hydroxydodecyl)benzene-1,4-diol] |  |  |  | IC50 [2, 6]: 6 µM
18 | 0.23 | OCCCCCCCCCCCCCCCCCCc1cc(O)ccc1O [Synthesis Example E-(32), 2-(18-hydroxyoctadecyl)benzene-1,4-diol] |  |  |  | IC50 [2, 6]: 6 µM
19 | 1.53 | CCCCCCCCCCCCCCCCc1cc(O)ccc1O [Synthesis Example E-(33), 2-hexadecylbenzene-1,4-diol] |  | + | + | 
20 | 0.23 | OCCCCCCCCCCCCCCCc1cc(O)ccc1O [Synthesis Example E-(34), 2-(15-hydroxypentadecyl)benzene-1,4-diol] |  |  |  | IC50 [2, 6]: 6 µM
21 | 0.23 | Cc1c(C)c2c(c(C)c1O)CCC(C)(C(=O)O)O2 (stereo not shown) [Trolox ®, reference compound] |  |  |  | IC50 [2, 6]: 600 µM
22 |  | CC1=C(CCCCCCCCCCCCCCCO)C(C)(C)CCC1=O [tCFA15, 3-(15-hydroxypentadecyl)-2,4,4-trimethyl-2-cyclohexen-1-one] |  |  |  | axonal growth-promoting activity in a previous study (in words) (E15 neurons [4]): showed similar results
